The subject of this experiment is secretion of cytokine IL-8 into the human monocyte cell line THP-1. The experiment can be described thus: inhibition of LPS-triggered IL-8 secretion in THP-1 cells (ELISA of supernatant). In kind it is cell-based. The protocol:
As an essential, molecular mechanism for the anti-inflammatory action of glucocorticoids, the GR-mediated inhibition of the transcription of cytokines, adhesion molecules, enzymes and other pro-inflammatory factors is considered. This inhibition is produced by an interaction of the GR with other transcription factors, e.g., AP-1 and NF-kappa-B (for a survey, see Cato, A. C. B., and Wade, E., BioEssays 18, 371-378, 1996).
The concentration of the cytokines was determined in the supernatant by means of commercially available ELISA kits.

`COCC(O)(C(Nc1cc(F)cc2c1ccc(=O)n2-c1ccc(F)nc1)c1ccc(OC)c(F)c1Cl)C(F)(F)F` (centres unmarked) [Example 2, 5-{[1-(2-Chloro-3-fluoro-4-methoxyphenyl)-3,3,3-trifluoro-2-hydroxy-2-(methoxymethyl)propyl]amino}-7-fluoro-1-(6-fluoropyridin-3-yl)-1H-quinolin-2-one]: the IC50 (Homo sapiens, inhibition of LPS-triggered IL-8 secretion, THP-1 cells, read-out: IC50(IL8)) worked out at 0.31 nM. Moreover, the efficacy (IL-8 inhibition, in comparison with dexamethasone as reference) is listed as 107%.

One may read the IC50 as the concentration at which inhibition is half-maximal.

The values are drawn from patent EP2149558A1, “5-[(3,3,3-Trifluoro-2-hydroxy-1-arylpropyl)amino-1-arylquinolin-2-ones, a process for their production and their use as anti-inflammatory agents” (Bayer Schering Pharma Aktiengesellschaft, priority 2008, dated 2010).
